Data on 28 compounds can be found in patent US9629921B2, “Smart pro-drugs of serine protease inhibitors” (Trustees of Tufts College, priority 2002, dated 2017).

The target of one data set is DPP IV (Homo sapiens, UniProt P27487). Kind of data set: In vitro DPP IV enzyme inhibition assay; inhibitors incubated at pH 2 or pH 8, then added to enzyme assay solution at pH 8.0. It is filed as biochemical. How it is done: Inhibitors were incubated overnight in pH 2 or pH 8 solutions and then added directly to an enzyme assay solution at pH 8.0.
It is important to note that the x-axis in FIG. 3 refers to the concentration of the SPI, not the concentration of the released Xaa-boroPro.

The next data set deals with male Sprague-Dawley rats. Kind of data set: Example 10: clinical signs and mortality after single oral administration in male rats.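 On all read-outs here: test articles given by mouth, formulated in deionized Type I water as vehicle.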 The following applies: for Clinical Observation: one line per animal, wrapped cell 'Redness of ears' continues 'and paws'.
Where [1] appears, read: pH 2, ten minutes, read-out: IC50 Values at Ten Minutes pH 2.
The mark [2] stands for this setting: pH 8, ten minutes, read-out: IC50 Values at Ten Minutes pH 8.
Setting [3] is: pH 2, read-out: Tetrapeptide Prodrugs (IC50) pH 2.
[4] abbreviates: pH 8, read-out: Tetrapeptide Prodrugs (IC50) pH 8.
The mark [5] stands for this setting: 2.5 mg/kg ALA-PRO boronic dose equivalents.
The mark [6] stands for this setting: 10.0 mg/kg ALA-PRO boronic dose equivalents.

Several values for one entry are separate records, joined by “and”; a condition that tells them apart may be missing. Equal entries are not always repeated. Where two headings read alike, the source gives them in different places.

Chain of DPP IV (P27487 whole entry, species assumed): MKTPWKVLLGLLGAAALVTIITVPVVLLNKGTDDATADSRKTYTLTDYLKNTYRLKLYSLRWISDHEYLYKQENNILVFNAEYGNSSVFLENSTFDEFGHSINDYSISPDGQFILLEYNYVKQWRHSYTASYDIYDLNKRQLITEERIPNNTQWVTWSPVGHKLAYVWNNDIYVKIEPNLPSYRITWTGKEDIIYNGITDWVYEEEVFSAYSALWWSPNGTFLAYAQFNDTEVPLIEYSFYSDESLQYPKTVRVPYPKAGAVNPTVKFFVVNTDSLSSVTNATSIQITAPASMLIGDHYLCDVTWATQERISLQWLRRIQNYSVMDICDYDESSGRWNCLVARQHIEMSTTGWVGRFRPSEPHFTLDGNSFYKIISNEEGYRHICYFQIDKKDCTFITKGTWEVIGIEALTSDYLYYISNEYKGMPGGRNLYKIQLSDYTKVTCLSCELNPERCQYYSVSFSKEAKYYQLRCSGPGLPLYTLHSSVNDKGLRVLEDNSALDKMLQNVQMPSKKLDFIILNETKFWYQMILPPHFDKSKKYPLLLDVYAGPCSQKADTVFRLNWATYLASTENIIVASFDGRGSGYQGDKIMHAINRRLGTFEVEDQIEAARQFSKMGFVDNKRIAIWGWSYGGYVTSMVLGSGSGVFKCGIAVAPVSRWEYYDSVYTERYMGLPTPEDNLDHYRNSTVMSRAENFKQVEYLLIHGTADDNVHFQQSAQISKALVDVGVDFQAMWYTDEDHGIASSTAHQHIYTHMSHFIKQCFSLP

In general, IC50 refers to the concentration needed to halve the response being measured. For `CC(N)C(=O)NC(C)C(=O)N1CCCC1C(=O)N1CCCC1B(O)O` (stereo not drawn) [AlaAlaProboroPro], the IC50 at DPP IV (setting [1]) was 3000 nM.

Consider `CCC(NC(=O)C1CCCN1C(=O)C(N)C1CCCCC1)C(=O)N1CCCC1B(O)O` (stereo not drawn) [ChgProEtgboroPro], for which the IC50 at DPP IV (setting [1]) stood at 12 nM; on DPP IV (setting [2]), 14 nM.

For the compound `CC(NC(=O)C1CCCN1C(=O)C(N)C(C)(C)C)C(=O)N1CCCC1B(O)O` (stereo not drawn) [tBugProAlaboroPro], the IC50 worked out at 14 nM on DPP IV (setting [1]) and 18 nM on DPP IV (setting [2]).

As to `CCC(NC(=O)C1CC(O)CN1C(=O)C(N)C1CCCCC1)C(=O)N1CCCC1B(O)O` (stereo not drawn) [ChgHypEtgboroPro], the IC50 is 17 nM at DPP IV (setting [1]) and 25 nM at DPP IV (setting [2]).

In the case of ChgDhpEtgboroPro, the figures for the IC50 at DPP IV (setting [1]) and on DPP IV (setting [2]) were 15 nM and 17 nM, respectively.

For `NCC(=O)N1CCCC1C(=O)N1CCCC1C(=O)N1CCCC1B(O)O` (stereo not drawn) [GlyProProboroPro], the figures for the IC50 at DPP IV (setting [3]), at DPP IV (setting [1]) and on DPP IV (setting [2]) were 9000 nM, 8600 nM and 20000 nM, respectively.

As to `CC(C)C(NC(=O)C1CCCN1C(=O)CN)C(=O)N1CCCC1B(O)O` (stereo not drawn) [GlyProValboroPro], the IC50 on DPP IV (setting [3]) came out at 17 nM; on DPP IV (setting [1]), 17 nM; on DPP IV (setting [4]), 46 nM; at DPP IV (setting [2]), 46 nM.

With `CCC(NC(=O)C(C)NC(=O)C(N)C1CCCCC1)C(=O)N1CCCC1B(O)O` (stereo not drawn) [ChgAlaEtgboroPro], the IC50 is 600 nM at DPP IV (setting [1]) and 802 nM at DPP IV (setting [2]).

Consider `CC(NC(=O)C1CCCN1C(=O)C(N)Cc1ccccc1)C(=O)N1CCCC1B(O)O` (stereo not drawn) [PheProAlaboroPro, Phenylalanine-Proline-Alanine-Proline Boronic Acid], for which the IC50 was found to be 6 nM on DPP IV (setting [1]) and 8 nM at DPP IV (setting [2]).

With `CC(NC(=O)C(NC(=O)C1CCCN1C(=O)C(N)C1CCCCC1)C(C)(C)C)B(O)O` (stereo not drawn) [ChgProtBugboroAla], the values for the IC50 on DPP IV (setting [1]) and on DPP IV (setting [2]) were 6800 nM and 8400 nM, respectively.

Turning to `CNC(Cc1ccccc1)C(=O)N1CCCC1C(=O)NC(C)C(=O)N1CCCC1B(O)O` (stereo not drawn) [N—Me-PheProAlaboroPro, N-Me-Phe-PRO-ALA-PRO Boronic Acid], the “Clinical Observation” value in the data set on male Sprague-Dawley rats (0.5 mg/kg ALA-PRO boronic dose equivalents) is “None”; in the data set on male Sprague-Dawley rats (setting [5]) it was “Redness of ears and None (2×)”; with male Sprague-Dawley rats (setting [6]), “None (2×) and Redness of ears”. In addition, the “Approximate Onset of Observation (Time post-dose)” value in the data set on male Sprague-Dawley rats (setting [5]) is roughly 2 h; with male Sprague-Dawley rats (setting [6]), roughly 4 h. In addition, the IC50 is 2000 nM at DPP IV (setting [1]) and 2700 nM on DPP IV (setting [2]).

With `CC(NC(=O)C(C)(C)N)C(=O)NC(C(=O)N1CCCC1B(O)O)C(C)C` (stereo not drawn) [AibAlaValboroPro], the 50% inhibitory concentration (IC50) at DPP IV (setting [1]) worked out at 2000 nM.

For `NC(Cc1ccc(O)cc1)C(=O)N1CCCC1C(=O)NC(Cc1ccccc1)C(=O)N1CCCC1B(O)O` (stereo not drawn) [TyrProPheboroPro], the IC50 at DPP IV (IC50 Values at Ten Minutes pH 2, pH 2, ten minutes) is 50 nM; against DPP IV (IC50 Values at Ten Minutes pH 8, pH 8, ten minutes), 60 nM.

In the case of `CC[C@H](NC(=O)[C@@H]1CSCN1C(=O)[C@@H](N)C1CCCCC1)C(=O)N1CCC[C@H]1B(O)O` [ChgThz4EtgboroPro], the half-inhibitory concentration (IC50) is 13 nM at DPP IV (setting [1]) and 16 nM on DPP IV (setting [2]).

For `O=C(C1CCCN1C(=O)C1CCCN1C(=O)C1CCCN1)N1CCCC1B(O)O` (stereo not drawn) [ProProProboroPro], the IC50 on DPP IV (setting [3]) and at DPP IV (setting [1]) was 10000 nM throughout.

`CC(N)C(=O)NC(C)C(=O)NC(C(=O)N1CCCC1B(O)O)C(C)C` (stereo not drawn) [AlaAlaValboroPro]: the IC50 amounted to 2000 nM at DPP IV (setting [1]) and 25000 nM at DPP IV (setting [2]).

Consider `NC(C(=O)N1CCCC1C(=O)NC(C(=O)N1CCCC1B(O)O)C1CCCCC1)C1CCCCC1` (stereo not drawn) [ChgProChgboroPro], for which the IC50 at DPP IV (setting [1]) and at DPP IV (setting [2]) was 14 nM in each case.

As for ChgPipEtgboroPro, the half-maximal inhibitory concentration (IC50) on DPP IV (setting [1]) came to 19 nM; at DPP IV (setting [2]), 14 nM.

For `CC(NC(=O)C(NC(=O)C1CCCN1C(=O)C(N)C1CCCCC1)C1CCCCC1)B(O)O` (stereo not drawn) [ChgProChgboroAla], the IC50 on DPP IV (setting [3]) stood at 180 nM; on DPP IV (setting [1]) it was 180 nM; on DPP IV (setting [4]) it was 170 nM; on DPP IV (setting [2]), 170 nM.

With `CCC(NC(=O)C1CCN1C(=O)C(N)C1CCCCC1)C(=O)N1CCCC1B(O)O` (stereo not drawn) [ChgAzeEtgboroPro], the IC50 worked out at 15 nM on DPP IV (setting [1]) and 16 nM at DPP IV (setting [2]).

Regarding `CC(N)C(=O)N1CCCC1C(=O)NC(C(=O)N1CCCC1B(O)O)C(C)C` (stereo not drawn) [AlaProValboroPro], the IC50 at DPP IV (setting [3]) came out at 20 nM; at DPP IV (setting [1]) it was 20 nM; on DPP IV (setting [4]), 21 nM; at DPP IV (setting [2]), 21 nM.

For `CC(NC(=O)C1CCCN1C(=O)C(N)Cc1ccc(O)cc1)C(=O)N1CCCC1B(O)O` (stereo not drawn) [TyrProAlaboroPro, Tyrosine-Proline-Alanine-Proline Boronic Acid], the IC50 is 15 nM at DPP IV (setting [1]) and 17 nM at DPP IV (setting [2]).

`CC(NC(=O)C(N)C1CCCCC1)C(=O)NC(C(=O)N1CCCC1B(O)O)C(C)C` (stereo not drawn) [ChgAlaValboroPro]: the 50% inhibitory concentration (IC50) at DPP IV (setting [3]) is 190 nM; on DPP IV (setting [1]), 190 nM; at DPP IV (setting [4]) it was 360 nM; on DPP IV (setting [2]), 360 nM.

For the compound `CC(NC(=O)C(N)C1CCCCC1)C(=O)N1CCCC1C(=O)N1CCCC1B(O)O` (stereo not drawn) [ChgAlaProboroPro], the IC50 is 2000 nM at DPP IV (setting [1]) and 30000 nM on DPP IV (setting [2]).

`CC(C)(C)[C@H](NC(=O)[C@@H]1CCCN1C(=O)[C@@H](N)C1CCCCC1)C(=O)N1CCC[C@H]1B(O)O` [ChgProBugboroPro]: the IC50 at DPP IV (setting [1]) stood at 1500 nM; at DPP IV (setting [2]) it was 8000 nM.

Consider `CCC(NC(=O)C(C)NC(=O)C(N)C1CCCCC1)C(=O)NC(C)B(O)O` (stereo not drawn) [ChgAlaEtgboroAla], for which the IC50 at DPP IV (setting [1]) was determined as 1300 nM; on DPP IV (setting [2]), 2500 nM.

For `O=C(C1CCCN1)N1CCCC1B(O)O` (stereo not drawn) [Pro-boroPro, reference compound], at DPP IV (pre-incubated at low pH vs high pH (FIG. 3, FIG. 64, Table 1)), the “pH dependence of DPP IV inhibition” value was “more effective as inhibitors of DPP IV when pre-incubated at low pH than at high pH”.

In the case of `CC(N)C(=O)N1CCCC1C(=O)N1CCCC1C(=O)N1CCCC1B(O)O` (stereo not drawn) [AlaProProboroPro], the IC50 at DPP IV (setting [1]) amounted to 8300 nM.
